Series [1] relates to recognition memory. The series can be described thus: Novel object recognition, scopolamine-impairment model, 3 hr retention interval.
Series [2] relates to human red blood cells. The experiment in a line: Hemolysis in human blood. The series is classed as cell-based. As to the method:
Stability of Test Articles at Different pH Values. 10 mM stock solutions of COMPOUND A were prepared in DMSO. From this stock solution, a single concentration in a 10 μL aliquot was added to three fluid matrices: SGF at pH 2.0 (gastric), SIF at pH 6.0 (upper intestine), and PBS at 7.4 (systemic). The final volume was 1 mL (0.1 mM). The preparations were then incubated at 37° C. and samples were collected at 0, 15, 30, 60, and 120 min for analysis of parent material by LC/MS/MS. The collected sample was quenched in acetonitrile/0.1% formic acid mixture. Red Blood Cell (RBC): Human and rat blood were centrifuged to separate out red blood cells at […] for 15 min. The upper plasma level was aspirated with a micropipette and placed in a bleach solution for disposal. The RBC pellet was resuspended in sterile isotonic saline. The pellet was gently resuspended by rocking the tube. […]
Stability in Human and Rat Red Blood cells and Hemolysis. […] After centrifugation, 70 μL of supernatant (without disturbing the pellet) was transferred to a clean and clear polystyrene flat bottomed 96-well plate and the absorbance of the sample at a single wavelength was measured using a Bio Tech Synergy Hl Plate Reader at a wavelength of 410 nm. […] Stability was measured by measuring loss of parent compound using LC/MS/MS.

The nature of series [3]: in vivo. The conditions noted are these: beagle, dog, plasma, po, 80 mg/kg.

For the compound `CCOc1ccccc1OC[C@@H]1CN(C(=O)OC(C)OC(=O)[C@@H](N)C(C)C)CCO1` (stereo partly drawn) [COMPOUND A], the “d2 ratios: effect on scopolamine impairment” value in series [1] (COMPOUND A 90 mg/kg p.o. + scopolamine) was “significantly attenuated this effect of scopolamine”. The “preference for the novel object (exploration times)” value in series [1] (COMPOUND A 30, 60, and 90 mg/kg p.o. + scopolamine, 3 hr delay) was “significant (p<0.05) preference for the novel object”. Also, the “hemolysis (% RBC lysis)” value in series [2] (human blood, 25, 50, 100 μM, 1 hr) is on record as “no detectable hemolysis”. In addition, the “EC50 (% RBC lysis)” value in series [2] (human blood, 60 min exposure) is reported as “outside the concentration range tested”.

Regarding `CCOc1ccccc1OC[C@@H]1CN(C(=O)OC(OC(=O)[C@H](N)C(C)C)C(C)C)CCO1` (stereo partly drawn) [COMPOUND C], in series [3] (female), the AUC(0-inf) stood at 591 ng·h/mL, the AUC(0-t) was determined as 572 ng·h/mL, the Cmax was found to be 308 ng/mL and the MRT inf came out at 4.78 h. For the same compound, in series [3] (female), the MRT last was 3.16 h, the Tmax stood at 0.5 h and the half-life was 4.73 h. In series [3] (male), this compound had an AUC(0-inf) of 1200 ng·h/mL, an AUC(0-t) of 1190 ng·h/mL, a Cmax of 775 ng/mL and an MRT inf of 2.8 h. In series [3] (male), the MRT last turned out to be 2.58 h, the Tmax stood at 0.5 h and the half-life was 2.94 h.

For the origin of these results see patent publication US20240343699A1, “DERIVATIVES OF SUBSTITUTED MORPHOLINES AND USES THEREOF” (Supernus Pharmaceuticals, Inc., priority 2023, published 2024).
